From patent US11414385B2, “Compounds and methods for treating, detecting, and identifying compounds to treat apicomplexan parasitic diseases” (The University of Chicago, priority 2015, dated 2022)
≈ marks a conversion by molar mass, not a printed value. Entries after “also recorded” stand apart in the source; their conditions may differ.

Assays:
[1] = Cytotoxicity assay with WST-1 in HFF; format: cell-based; details: human, human foreskin fibroblasts (HFF); read-out: HFF Toxicity CC50
Description: (§1) Toxicity assays were conducted using WST-1 cell proliferation reagent (Roche). HFF were grown on a flat, clear-bottomed, black 96-well plate. Confluent HFF were treated with inhibitory compounds at concentrations equal to those being tested in challenge assays. Compounds were diluted in IMDM-C, and 20 μl were added to each designated well, with triplicates for each condition. A gradient of 2 fold-decreasing concentrations of DMSO in clear IMDM-C was used as a control. The plate was incubated for 72 hours at 37° C. 10 μl of WST-1 reagent (Roche) were added to each well and the cells were incubated for 30 to 60 minutes. Absorbance was read using a fluorometer at 420 nm. A higher degree of color change (and absorbance) indicated mitochondrial activity and cell viability.
as §1, with “(Roche) as described in Fomovska, et. al. (18,19).” for “(Roche).”, “of 10 μM and 50 μM.” for “equal to those being tested in challenge assays.”, “DMSO from 10% to 0%” for “DMSO”, “fluorimeter” for “fluorometer”

FaSSIF solubility pH 6.5 = format: physicochemical
Toxoplasma RPS13 delta = assay: RPS13 delta G0 arrested parasite in interferon gamma knockout mice; format: in vivo, Toxoplasma gondii; details: with tafenoquine 3 mg/kg single dose, minus tetracycline
Description: RPS13 Δ. This G0 arrested parasite persists in tissue culture for prolonged times in the absence of tetracycline. The parasite (x) was used to infect interferon gamma knockout mice. For the first y days no tetracycline was administered. After that time tetracycline was administered. Mice were observed and at the time they appeared ill or at the termination of the experiment they were euthanized and tissues fixed in formalin and stained with hematoxylin and eosin or immunoperoxidase stained and parasite burden was assessed.

[2] = test system: human foreskin fibroblasts (HFF); assay: Cytotoxicity assay with WST-1 in HFF; format: cell-based; details: 10 μM and 50 μM, WST-1
Description: as §1
as §1, with “(Roche) as described in Fomovska, et. al. (18,19).” for “(Roche).”, “of 10 μM and 50 μM.” for “equal to those being tested in challenge assays.”, “DMSO from 10% to 0%” for “DMSO”, “fluorimeter” for “fluorometer”

[3] = test system: Toxoplasma gondii (Pru strain expressing luciferase) tachyzoites; assay: Toxoplasma in vivo, IVIS luminescence in mice; details: 5 mg/kg/day IP
Description: IVIS. Mice were infected intraperitoneally with 20×10^3 Toxoplasma gondii (Pru strain expressing luciferase) tachyzoites. Treatment commenced 2 hours later with JAG21 (5 mg/kg) which was dissolved in DMSO and administered intraperitoneally in a total volume of 0.05 ml. Mice were imaged every second day starting on day 4 post infection using a IVIS Spectrum (Caliper Life Sciences) for a 1 minute exposures, with medium binning, 20 minutes post injection with 150 mg/kg of D-luciferin potassium salt solution.

[4] = test system: P. berghei sporozoites, blood and liver stages; assay: P. berghei sporozoite causal prophylaxis model in mice; format: in vivo, Plasmodium berghei
Description: P. berghei sporozoites. The methods that follow are taken directly from^24,25: From laboratory-reared female Anopheles stephensi, isolation, inoculation and viability check Plasmodium berghei sporozoites (luciferase expressing) were obtained and maintained at 18° C. for 17 to 22 days after feeding on malaria-infected Swiss CD-1/ICR mice. From malaria-infected mosquitoes, salivary glands were extracted and sporozoites obtained. Briefly, mosquitoes were separated into head/thorax and abdomen. Thoraxes and heads were triturated with a mortar and pestle and suspended in medium RPMI 1640 containing 1% C57BL/6 mouse serum (Rockland Co, Gilbertsville, Pa., USA). 50-80 heads with glands total were placed into a 0.5 ml Osaki tube on top of glass wool with enough dissection media to cover the heads. Until all mosquitoes had been dissected, the Osaki tube was kept on ice. Sporozoites that were isolated from the same batch of mosquitoes were inoculated into C57BL/6, 2D knock-out and 2D knock-out/2D6 knock-in C57BL/6 mice on the same day to control for biological variability in sporozoite preparations. On day 0, each mouse was inoculated intravenously in the tail vein with approximately 10,000 sporozoites suspended in 0.1 ml volume. They were stained with a vital dye containing fluorescein diacetate (50 mg/ml in acetone) and ethidium bromide (20 μg/ml in phosphate buffered saline; Sigma Chemical Co, St. Louis, Mo., USA) and counted in a haemocytometer to ensure that inoculated sporozoites were viable following the isolation procedure. Viability of the sporozoites ranged from 90 to 100%.
At the time of preparation of the suspension solution, compounds tested in these experiments were dosed based on the body weight. The suspension solution of oral agents, using homogenizer (PRO Scientific Inc, Monroe, Conn., USA) with 10 mm open-slotted generator to homogenize drug powder mixture at 20,000-22,000 rpm for 5 min in ice bath, were prepared in 0.5% (w/v) hydroxyethyl cellulose and 0.2% (0.5% HECT, v/v) Tween-80 in distilled water. […]
All of the in vivo imaging system (IVIS) methods utilized have been described previously. […] Additionally, using a flow cytometry system (FC500 MPL, Beckman Coulter, Miami, Fla., USA), blood-stage infections were measured. […] D-Luciferin potassium salt, (Xenogen, California and Goldbio, St Louis, Mo., USA), the luciferase substrate, was inoculated intraperitoneally into mice at a concentration of 200 mg/kg 15 min before luminescence analysis. […] Using Living Image® 3.0 software, photons emitted from specific regions were quantified.
Parasitemia was measured after days of IVIS imaging. During a total of 30 days, mice were observed and parasitemia level determined using FACs analysis. […]

CYP = CYP profile; format: in vitro ADME
[5] = P. berghei, 0.625 mg/kg x3 or 2.5 mg/kg single oral dose

Compound	CC50 at 72 h [1] [µM]	solubility (FaSSIF solubility pH 6.5; FaSSIF, pH 6.5, fassif) [µM]	improved FaSSIF/FeSSIF (pH 6.5) solubility (FaSSIF solubility pH 6.5; relative to ELQ 271) [fold]	protection against RPS13 delta in combination with tafenoquine (Toxoplasma RPS13 delta)	toxicity to human foreskin fibroblasts [2]	effect on T. gondii tachyzoites in mice [3]	P. berghei cure, 3 oral doses ([4]; 3 oral doses (days -1, 0, +1), 0.625 mg/kg)	parasitemia [4, 5]	survival at 30 days [4, 5] [%]	P. berghei cure, single oral dose ([4]; single dose 2.5 mg/kg, oral, 2.5 mg/kg)	CYP profile (CYP)
Cc1[nH]c2c(c(=O)c1-c1ccc(Oc3ccccc3)cc1)CCCC2 [MJM170]	20	9.8 (≈ 3.25 µg/mL)	3								
Cc1[nH]c2c(c(=O)c1-c1ccc(Oc3ccc(OC(F)(F)F)cc3)cc1)CCCC2 [JAG21, 2-methyl-3-(4-(4-(trifluoromethoxy)phenoxy)phenyl)-5,6,7,8-tetrahydroquinolin-4(1H)-one]				both needed to contain RPS 13Δ; also recorded: protect against a G0 arrested parasite; also recorded: superior to either alone	no toxicity	protects against Toxoplasma gondii tachyzoites; also recorded: cleared; also recorded: eliminates T. gondii tachyzoites	protect and cure	no parasitemia	100	cures and cure	clean
